# Test results: paper PMC6691788, “Design and synthesis of phthalazine-based compounds as potent anticancer agents with potential antiangiogenic activity via VEGFR-2 inhibition” (Journal of Enzyme Inhibition and Medicinal Chemistry, 2019)
# Legend:
# [1] = tested on: U251; assay: NCI 60 cell panel SRB screen; assay type: cell-based; details: Homo sapiens, U-251
# [2] = tested on: MOLT-4; assay: NCI 60 cell panel SRB screen; assay type: cell-based; details: Homo sapiens, MOLT-4, 5 log dose
# [3] = tested on: ACHN; assay: NCI 60 cell panel SRB screen; assay type: cell-based; details: Homo sapiens
# [4] = tested on: SK-OV-3; assay: NCI 60 cell panel SRB screen; assay type: cell-based; details: Homo sapiens
# [5] = molecular target: T1, VEGFR-2 tyrosine kinase (Homo sapiens, UniProt P35968); assay: In vitro VEGFR-2 tyrosine kinase assay (BPS Bioscience); assay type: biochemical; details: read-out: VEGFR-2 % inhibition; 10 μM concentration
# T1 construct: purchased BPS Bioscience 40301
# T1 sequence (P35968 20-1356): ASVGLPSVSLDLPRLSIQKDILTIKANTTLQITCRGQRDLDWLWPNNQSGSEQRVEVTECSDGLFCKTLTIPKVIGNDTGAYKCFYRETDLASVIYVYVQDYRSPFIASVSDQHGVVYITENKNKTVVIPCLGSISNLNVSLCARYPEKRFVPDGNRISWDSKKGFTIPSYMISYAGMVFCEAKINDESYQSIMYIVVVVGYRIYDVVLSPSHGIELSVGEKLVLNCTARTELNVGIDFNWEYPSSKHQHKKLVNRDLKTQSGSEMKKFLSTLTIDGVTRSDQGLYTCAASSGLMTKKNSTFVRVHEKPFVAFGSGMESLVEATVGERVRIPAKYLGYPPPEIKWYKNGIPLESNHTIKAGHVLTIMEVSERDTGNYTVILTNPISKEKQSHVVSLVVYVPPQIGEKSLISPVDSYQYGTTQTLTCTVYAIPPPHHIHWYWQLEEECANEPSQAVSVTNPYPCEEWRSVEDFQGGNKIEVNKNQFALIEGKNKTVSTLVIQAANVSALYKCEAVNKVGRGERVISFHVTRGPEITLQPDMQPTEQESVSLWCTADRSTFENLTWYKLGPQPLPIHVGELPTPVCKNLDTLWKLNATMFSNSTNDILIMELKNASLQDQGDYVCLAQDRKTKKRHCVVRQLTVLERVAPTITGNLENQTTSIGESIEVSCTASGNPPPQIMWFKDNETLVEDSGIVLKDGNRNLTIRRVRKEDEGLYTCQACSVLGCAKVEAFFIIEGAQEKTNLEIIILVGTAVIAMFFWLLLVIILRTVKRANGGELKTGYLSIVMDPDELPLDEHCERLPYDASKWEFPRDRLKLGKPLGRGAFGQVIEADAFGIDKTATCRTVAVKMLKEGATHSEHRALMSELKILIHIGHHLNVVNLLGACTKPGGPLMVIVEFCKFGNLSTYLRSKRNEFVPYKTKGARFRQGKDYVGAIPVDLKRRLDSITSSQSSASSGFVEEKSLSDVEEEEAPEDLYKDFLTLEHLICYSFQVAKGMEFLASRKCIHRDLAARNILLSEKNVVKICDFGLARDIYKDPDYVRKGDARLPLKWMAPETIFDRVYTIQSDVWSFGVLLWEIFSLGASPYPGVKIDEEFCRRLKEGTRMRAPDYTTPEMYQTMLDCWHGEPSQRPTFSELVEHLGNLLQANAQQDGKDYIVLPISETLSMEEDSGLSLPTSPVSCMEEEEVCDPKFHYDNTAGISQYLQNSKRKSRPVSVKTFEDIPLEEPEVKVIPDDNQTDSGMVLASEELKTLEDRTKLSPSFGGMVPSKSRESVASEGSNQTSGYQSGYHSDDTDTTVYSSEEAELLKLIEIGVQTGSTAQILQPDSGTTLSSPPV
# Procedure, shortened: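 For IC50, ADP formation after a 30-min 30 °C reaction was detected by ADP-Glo luminescence in duplicate, blank-subtracted and fitted as log inhibitor versus normalised response. The 10 µM single-dose test instead measured remaining ATP (Kinase-Glo Plus) after 40 min at 30 °C with poly(Glu,Tyr) substrate, 10 μM ATP, pH 7.4, 1% DMSO.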
# [6] = tested on: NCI-H522; assay: NCI 60 cell panel SRB screen; assay type: cell-based; details: Homo sapiens
# [7] = tested on: MDA-MB-435; assay: NCI 60 cell panel SRB screen; assay type: cell-based; details: Homo sapiens
# [8] = tested on: MCF7; assay: NCI 60 cell panel SRB screen; assay type: cell-based; details: Homo sapiens
# [9] = tested on: UO-31; assay: NCI 60 cell panel SRB screen; assay type: cell-based; details: Homo sapiens
# [10] = tested on: NCI-H23; assay: NCI 60 cell panel SRB screen; assay type: cell-based; details: Homo sapiens
# [11] = tested on: NCI/ADR-RES; assay: NCI 60 cell panel SRB screen; assay type: cell-based; details: Homo sapiens
# [12] = tested on: RPMI-8226; assay: NCI 60 cell panel SRB screen; assay type: cell-based; details: Homo sapiens
# [13] = tested on: UACC-257; assay: NCI 60 cell panel SRB screen; assay type: cell-based; details: Homo sapiens
# [14] = tested on: HOP-92; assay: NCI 60 cell panel SRB screen; assay type: cell-based; details: Homo sapiens
# [15] = tested on: SF-295; assay: NCI 60 cell panel SRB screen; assay type: cell-based; details: Homo sapiens
# [16] = tested on: SF-268; assay: NCI 60 cell panel SRB screen; assay type: cell-based; details: Homo sapiens
# [17] = tested on: A549/ATCC; assay: NCI 60 cell panel SRB screen; assay type: cell-based; details: Homo sapiens
# [18] = tested on: K-562; assay: NCI 60 cell panel SRB screen; assay type: cell-based; details: Homo sapiens, K562
# [19] = tested on: NCI-H322M; assay: NCI 60 cell panel SRB screen; assay type: cell-based; details: Homo sapiens
# [20] = tested on: SN12C; assay: NCI 60 cell panel SRB screen; assay type: cell-based; details: Homo sapiens
# [21] = 5 log dose, 48 h, read-out: LC50 (the source's name)
# [22] = single dose 10 μM, read-out: percent cell growth promotion
structure (smiles),measurement,setting,value
"O=C(Nc1ccccc1)Nc1ccc(Oc2nnc(Cl)c3ccccc23)cc1 [Compound 13a, 1–(4-(4-Chlorophthalazin-1-yloxy)phenyl)-3-phenylurea]",GI50,"[1]; U251, 5 log dose",2140 nM
same,IC (TGI),"[1]; U251, 5 log dose",5.2 µM
same,CC50,"[1]; U251, 5 log dose, 48 h, read-out: LC50 (the source's name)",11.4 µM
same,activity at 10 µM,"[1]; U251, single dose 10 μM, read-out: percent cell growth promotion",4.84%
same,GI50,[2],2600 nM
same,IC (TGI),[2],11.4 µM
same,CC50,"[2]; 48 h, read-out: LC50 (the source's name)",> 25 µM
same,GI50,[3]; 5 log dose,3.47 µM
same,IC (TGI),[3]; 5 log dose,18.7 µM
same,CC50,[3]; [21],> 25 µM
same,activity at 10 µM,[3]; [22],33.9%
same,GI50,"[4]; SK-OV-3, 5 log dose",1460 nM
same,IC (TGI),"[4]; SK-OV-3, 5 log dose",5.51 µM
same,CC50,"[4]; SK-OV-3, 5 log dose, 48 h, read-out: LC50 (the source's name)",16.6 µM
same,activity at 10 µM,"[4]; SK-OV-3, single dose 10 μM, read-out: percent cell growth promotion",-0.5%
same,inhibition at 10 µM,[5],24%
same,GI50,"[6]; NCI-H522, 5 log dose",2800 nM
same,IC (TGI),"[6]; NCI-H522, 5 log dose",9.68 µM
same,CC50,"[6]; NCI-H522, 5 log dose, 48 h, read-out: LC50 (the source's name)",> 25 µM
same,activity at 10 µM,"[6]; NCI-H522, single dose 10 μM, read-out: percent cell growth promotion",2%
same,GI50,[7]; MDA-MB-435,7.54 µM
same,IC (TGI),"[7]; MDA-MB-435, read-out: TGI",> 25 µM
same,activity at 10 µM,"[7]; MDA-MB-435, read-out: percent cell growth promotion",48.6%
same,CC50,"[7]; MDA-MB-435, 5 log dose, 48 h, read-out: LC50 (the source's name)",> 25 µM
same,GI50,[8]; MCF7,1320 nM
same,IC (TGI),"[8]; MCF7, read-out: TGI",6.32 µM
same,activity at 10 µM,"[8]; MCF7, read-out: percent cell growth promotion",-4.15%
same,CC50,"[8]; MCF7, 5 log dose, 48 h, read-out: LC50 (the source's name)",20.6 µM
same,GI50,"[9]; UO-31, 5 log dose",3.98 µM
same,IC (TGI),"[9]; UO-31, 5 log dose",19.6 µM
same,CC50,"[9]; UO-31, 5 log dose, 48 h, read-out: LC50 (the source's name)",> 25 µM
same,activity at 10 µM,"[9]; UO-31, single dose 10 μM, read-out: percent cell growth promotion",34.9%
same,GI50,"[10]; NCI-H23, 5 log dose",3.72 µM
same,IC (TGI),"[10]; NCI-H23, 5 log dose",9.44 µM
same,CC50,"[10]; NCI-H23, 5 log dose, 48 h, read-out: LC50 (the source's name)",24 µM
same,activity at 10 µM,"[10]; NCI-H23, single dose 10 μM, read-out: percent cell growth promotion",32.7%
same,GI50,[11]; 5 log dose,2630 nM
same,IC (TGI),[11]; 5 log dose,6.39 µM
same,CC50,[11]; [21],15.5 µM
same,activity at 10 µM,[11]; [22],16.9%
same,GI50,"[12]; RPMI-8226, 5 log dose",4.45 µM
same,IC (TGI),"[12]; RPMI-8226, 5 log dose",24.3 µM
same,CC50,"[12]; RPMI-8226, 5 log dose, 48 h, read-out: LC50 (the source's name)",> 25 µM
same,activity at 10 µM,"[12]; RPMI-8226, single dose 10 μM, read-out: percent cell growth promotion",35.1%
same,GI50,[13]; UACC-257,3.96 µM
same,IC (TGI),"[13]; UACC-257, read-out: TGI",> 25 µM
same,activity at 10 µM,"[13]; UACC-257, read-out: percent cell growth promotion",22%
same,CC50,"[13]; UACC-257, 5 log dose, 48 h, read-out: LC50 (the source's name)",> 25 µM
same,GI50,"[14]; HOP-92, 5 log dose",3.09 µM
same,IC (TGI),"[14]; HOP-92, 5 log dose",11.3 µM
same,CC50,"[14]; HOP-92, 5 log dose, 48 h, read-out: LC50 (the source's name)",> 25 µM
same,activity at 10 µM,"[14]; HOP-92, single dose 10 μM, read-out: percent cell growth promotion",-7.51%
same,GI50,"[15]; SF-295, 5 log dose",2070 nM
same,IC (TGI),"[15]; SF-295, 5 log dose",5.63 µM
same,CC50,"[15]; SF-295, 5 log dose, 48 h, read-out: LC50 (the source's name)",13.5 µM
same,activity at 10 µM,"[15]; SF-295, single dose 10 μM, read-out: percent cell growth promotion",31.2%
same,GI50,"[16]; SF-268, 5 log dose",2890 nM
same,IC (TGI),"[16]; SF-268, 5 log dose",7.57 µM
same,CC50,"[16]; SF-268, 5 log dose, 48 h, read-out: LC50 (the source's name)",19.8 µM
same,activity at 10 µM,"[16]; SF-268, single dose 10 μM, read-out: percent cell growth promotion",25.9%
same,GI50,[17]; 5 log dose,3.47 µM
same,IC (TGI),[17]; 5 log dose,18.4 µM
same,LC50 (concentration killing 50% of cells),"[17]; 5 log dose, 48 h",> 25 µM
same,activity at 10 µM,[17]; [22],11.2%
same,GI50,"[18]; K-562, 5 log dose",6.21 µM
same,IC (TGI),"[18]; K-562, 5 log dose",> 25 µM
same,CC50,"[18]; K-562, 5 log dose, 48 h, read-out: LC50 (the source's name)",> 25 µM
same,activity at 10 µM,"[18]; K-562, single dose 10 μM, read-out: percent cell growth promotion",51.6%
same,GI50,[19]; 5 log dose,2190 nM
same,IC (TGI),[19]; 5 log dose,> 25 µM
same,CC50,[19]; [21],> 25 µM
same,activity at 10 µM,[19]; [22],47.3%
same,GI50,[20]; 5 log dose,6.72 µM
same,IC (TGI),[20]; 5 log dose,> 25 µM
same,CC50,[20]; [21],> 25 µM
same,activity at 10 µM,[20]; [22],53.7%
